Results published in PubChem BioAssay AID2060904 (Molecular Pharmacology Branch, DTP, NCI, 2025).
pIC50: −log10 of the molar value.

Test system: 349418-098-R-PDC complex spheroid viability
Experiment: Anticancer human tumor 349418-098-R-PDC patient-derived lung adenocarcinoma cell line growth inhibition [RAS]
Conditions: for pIC50: curve of first compound; for viability, T/C: stronger effect = lower value
From the text: RAS pathway inhibitors in Combinations in Complex Spheroids
A high-throughput screen of multi-cell type tumor spheroids was designed to identify active combinations of RAS pathway inhibitors and targeted small molecules. Complex spheroids include a stromal component modeled by human endothelial cells (HUVEC) and fibroblasts modeled by human mesenchymal stem cells (MSCs). The concentration ranges selected for each drug and investigational agent were based upon clinically achievable concentrations if the clinical Cmax of the agent was known.
Compounds. The drugs and investigational agents: abemaciclib (NSC768073), cobimetinib (NSC768068), divarasib (GDC6063, NSC841802), docetaxel (NSC628503), GDC-1971 (RLY-1971, NSC841576), gemcitabine (NSC613327), inavolisib (NSC800729), ipatasertib (NSC767898), KB-0742 (NSC834161), MRTX-1133 (NSC836407), osimertinib (NSC779217), RMC-4630 (NSC839698), RMC-6236 (NSC851965), RMC-6291 (NSC852671), Ro-3306 (NSC812927), sapanisertib (NSC764658), SN-38 (NSC673596), staurosporine (NSC755774), SY5609 (NSC837396), and tovorafenib (DAY101, NSC766906), were obtained from the National Cancer Institute (NCI) Developmental Therapeutics Program Chemical Repository. The FDA-approved anticancer drug set is available from the NCI Developmental Therapeutics Program. […] The stock solutions were prepared in dimethyl sulfoxide (DMSO, Sigma-Aldrich, St. Louis, MO, cat. D2650) at 800-fold the tested concentration and stored at -70 degrees C prior to their use. All drugs and investigational agents were tested over a range starting from a high concentration at or near the clinical Cmax and decreasing in half-log increments. If the clinical Cmax for an agent had not been determined, the highest concentration tested was 10 microM.
Cell Culture. All cells were maintained in an incubator at 37 degrees C and 5% CO2 with 95% humidity. The PDC lines were cultured according to standard operating procedures established by the NCI PDMR. All PDCs were thawed and cultured in Matrigel-coated flasks prepared with a working solution of 1X Ham's F-12 nutrient mix, without supplementation (Invitrogen, Waltham, MA, cat. 11765054), 100 U/mL penicillin-streptomycin (Invitrogen, cat. 15140122), and 2.5% Matrigel (Corning Inc., Corning, NY, cat. 354248) for the first three passages. The 362531-283-R-J2-PDC and 782815-120-R-J1-PDC lines were cultured in 6C/Colon 1B media, which includes advanced DMEM/F-12 (Thermo Fisher Scientific, cat. 12634028), 10 mM HEPES (Thermo Fisher Scientific, cat. 15630080), 1X GlutaMAX supplement (Thermo Fisher Scientific, cat. 35050061), 0.1 mg/mL primocin (InvivoGen, San Diego, CA, cat. ant-pm-2), 10% defined fetal bovine serum, heat inactivated (HyClone Laboratories Inc., Logan, UT, cat. SH30070.03HI), 50% L-WRN conditioned media (ATCC, cat. CRL-3276), 1.25 mM N-Acetyl-L-cysteine (Sigma-Aldrich, cat. A9165), 10 mM nicotinamide (Sigma-Aldrich, cat. N0636), 1X B-27 supplement (Thermo Fisher Scientific, cat. 17504044), 1X N-2 supplement (Thermo Fisher Scientific, cat. 17502048), 50 ng/mL human EGF (Thermo Fisher Scientific, cat. PHG0311), and 10 microM Y-27632 dihydrochloride (Tocris Bioscience, cat. 1254). The K12877-001-R-J1-PDC line was cultured in 6I media, which includes all 6C/Colon 1B media plus 10 ng/mL human FGF-10 (PeproTech, cat. 100-26), 1 ng/mL human FGF-2 (PeproTech, cat. 100-18B), 1 µM prostaglandin E2 (Tocris Bioscience, cat. 2296), […] hydrocortisone (Sigma-Aldrich, cat. H4001), and […] bovine insulin (Sigma-Aldrich, cat. I6634). The K86415-001-R-J1-PDC line was cultured in 6D media, which includes all 6C/Colon 1B media components minus the L-WRN conditioned media. The 485176-168-R4-J1-PDC was cultured in PANC media, which includes all 6C/Colon 1B media plus 100 ng/mL human FGF-10 (PeproTech, cat. 100-26), 500 nM SB-431542 (Selleckchem, cat. S1067), and 10 nM gastrin (Tocris Bioscience, cat. 3006). […]

[1] = second compound 0.000949 µM, first compound 0.0316 µM
[2] = second compound 0.000949 µM, first compound 0.1 µM
[3] = second compound 0.000949 µM, first compound 0.316 µM
[4] = second compound 0.000949 µM, first compound 1 µM
[5] = second compound 0.003 µM, first compound 0.0316 µM
[6] = second compound 0.003 µM, first compound 0.1 µM
[7] = second compound 0.003 µM, first compound 0.316 µM
[8] = second compound 0.003 µM, first compound 1 µM
[9] = second compound 0.00949 µM, first compound 0.0316 µM
[10] = second compound 0.00949 µM, first compound 0.1 µM
[11] = second compound 0.00949 µM, first compound 0.316 µM
[12] = second compound 0.00949 µM, first compound 1 µM
[13] = second compound 0.03 µM, first compound 0.0316 µM
[14] = second compound 0.03 µM, first compound 0.1 µM
[15] = second compound 0.03 µM, first compound 0.316 µM
[16] = second compound 0.03 µM, first compound 1 µM
[17] = second compound 0.0949 µM, first compound 0.0316 µM
[18] = second compound 0.0949 µM, first compound 0.1 µM
[19] = second compound 0.0949 µM, first compound 0.316 µM
[20] = second compound 0.0949 µM, first compound 1 µM
[21] = second compound 0.3 µM, first compound 0.0316 µM
[22] = second compound 0.3 µM, first compound 0.1 µM
[23] = second compound 0.3 µM, first compound 0.316 µM
[24] = second compound 0.3 µM, first compound 1 µM
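Also: spheroids exposed to compound for seven days before viability readout.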

Compound: CC(=O)OC12COC1CC(O)C1(C)C(=O)C(O)C3=C(C)C(OC(=O)C(O)C(NC(=O)OC(C)(C)C)c4ccccc4)CC(O)(C(OC(=O)c4ccccc4)C21)C3(C)C (centres undefined) + CCn1c(-c2cc(N3CCN(C)CC3)cnc2C(C)OC)c2c3cc(ccc31)-c1csc(n1)CC(NC(=O)C1CC1C)C(=O)N1CCCC(N1)C(=O)OCC(C)(C)C2
- pIC50 (second compound 0.000949 µM): > 7.50
- pIC50 (second compound 0.003 µM): > 7.50
- pIC50 (second compound 0.00949 µM): > 7.50
- pIC50 (second compound 0.03 µM): > 7.50
- pIC50 (second compound 0.0949 µM): > 7.50
- pIC50 (second compound 0.3 µM): > 7.50
- viability, T/C [1]: 12.3%
- viability, T/C [2]: 12.4%
- viability, T/C [3]: 14.2%
- viability, T/C [4]: 13.5%
- viability, T/C (second compound 0.000949 µM, first compound 3.16 µM): 17.1%
- viability, T/C (second compound 0.000949 µM, first compound 10 µM): 19.4%
- viability, T/C [5]: 14.3%
- viability, T/C [6]: 11.3%
- viability, T/C [7]: 13.8%
- viability, T/C [8]: 13.4%
- viability, T/C (second compound 0.003 µM, first compound 3.16 µM): 15.2%
- viability, T/C (second compound 0.003 µM, first compound 10 µM): 22.9%
- viability, T/C [9]: 14.9%
- viability, T/C [10]: 16.2%
- viability, T/C [11]: 13.8%
- viability, T/C [12]: 16%
- viability, T/C (second compound 0.00949 µM, first compound 3.16 µM): 18.8%
- viability, T/C (second compound 0.00949 µM, first compound 10 µM): 17.1%
- viability, T/C [13]: 14.4%
- viability, T/C [14]: 12.8%
- viability, T/C [15]: 15.9%
- viability, T/C [16]: 18%
- viability, T/C (second compound 0.03 µM, first compound 3.16 µM): 18%
- viability, T/C (second compound 0.03 µM, first compound 10 µM): 19.1%
- viability, T/C [17]: 11.5%
- viability, T/C [18]: 14.2%
- viability, T/C [19]: 14.5%
- viability, T/C [20]: 14.3%
- viability, T/C (second compound 0.0949 µM, first compound 3.16 µM): 17.3%
- viability, T/C (second compound 0.0949 µM, first compound 10 µM): 18%
- viability, T/C [21]: 15.2%
- viability, T/C [22]: 12.8%
- viability, T/C [23]: 17.8%
- viability, T/C [24]: 16.8%
- viability, T/C (second compound 0.3 µM, first compound 3.16 µM): 21.4%
- viability, T/C (second compound 0.3 µM, first compound 10 µM): 18.4%

Compound: O=C(c1ccc(F)c(F)c1Nc1ccc(I)cc1F)N1CC(O)([C@@H]2CCCCN2)C1 + CCn1c(-c2cccnc2C(C)OC)c2c3cc(ccc31)N1CCOC(CC(NC(=O)C(C(C)C)N(C)C(=O)C3(F)CCN(C(=O)C#CC(C)(C)N(C)C)CC3)C(=O)N3CCCC(N3)C(=O)OCC(C)(C)C2)C1
- pIC50 (second compound 0.000949 µM): > 8.50
- pIC50 (second compound 0.003 µM): > 8.50
- pIC50 (second compound 0.00949 µM): > 8.50
- pIC50 (second compound 0.03 µM): > 8.50
- pIC50 (second compound 0.0949 µM): > 8.50
- pIC50 (second compound 0.3 µM): > 8.50
- viability, T/C (second compound 0.000949 µM, first compound 0.00316 µM): 26.5%
- viability, T/C (second compound 0.000949 µM, first compound 0.01 µM): 22.8%
- viability, T/C [1]: 15.6%
- viability, T/C [2]: 12.7%
- viability, T/C [3]: 7.76%
- viability, T/C [4]: 5.98%
- viability, T/C (second compound 0.003 µM, first compound 0.00316 µM): 29.4%
- viability, T/C (second compound 0.003 µM, first compound 0.01 µM): 24.1%
- viability, T/C [5]: 17.2%
- viability, T/C [6]: 11.3%
- viability, T/C [7]: 6.93%
- viability, T/C [8]: 5.43%
- viability, T/C (second compound 0.00949 µM, first compound 0.00316 µM): 28.6%
- viability, T/C (second compound 0.00949 µM, first compound 0.01 µM): 17.8%
- viability, T/C [9]: 14.9%
- viability, T/C [10]: 10.6%
- viability, T/C [11]: 7.5%
- viability, T/C [12]: 6.07%
- viability, T/C (second compound 0.03 µM, first compound 0.00316 µM): 30.2%
- viability, T/C (second compound 0.03 µM, first compound 0.01 µM): 14.9%
- viability, T/C [13]: 15.8%
- viability, T/C [14]: 12%
- viability, T/C [15]: 7.23%
- viability, T/C [16]: 5.04%
- viability, T/C (second compound 0.0949 µM, first compound 0.00316 µM): 27.1%
- viability, T/C (second compound 0.0949 µM, first compound 0.01 µM): 17.5%
- viability, T/C [17]: 13.2%
- viability, T/C [18]: 10.3%
- viability, T/C [19]: 6.84%
- viability, T/C [20]: 5.79%
- viability, T/C (second compound 0.3 µM, first compound 0.00316 µM): 30.1%
- viability, T/C (second compound 0.3 µM, first compound 0.01 µM): 15.8%
- viability, T/C [21]: 12.9%
- viability, T/C [22]: 11.1%
- viability, T/C [23]: 7.31%
- viability, T/C [24]: 5.8%
